Test results as given in paper PMC6321124, “Hydrophilic Linear Peptide with Histidine and Lysine Residues as a Key Factor Affecting Antifungal Activity” (International Journal of Molecular Sciences, 2018).

Tested on: drug-resistant C. albicans strains (CCARM 14001, 14004, 14007, and 14020)
Format: cell-based
Conditions: at 256 µM; CCARM 14001, 14004, 14007, 14020; data not shown

## OC(Cn1cncn1)(Cn1cncn1)c1ccc(F)cc1F [fluconazole]
  antifungal activity against drug-resistant C. albicans strains: inactive
